Key:
[1] = test system: Hela (human cervical cancer cells); assay: MTT cancer cell growth inhibition; type: cell-based; conditions: 72 h
Description: (§1) 1. Experimental principles: the inhibition of cancer cell growth with compounds is detected by an MTT method. The principle of the MTT method is as follows: yellow thiazolyl blue may penetrate through cell membranes and enter into cells, succinate dehydrogenase in living cell mitochondria may reduce exogenous MTT into water-insoluble ianthinus acicular Formazan crystals which deposit in the cells, the crystals can be dissolved with dimethyl sulfoxide (DMSO), the optical density of the crystals is detected with an enzyme-linked immunometric meter at the wavelength of 490 nm/570 nm, and the number of cells can be indirectly reflected.
(§2) 2. Experimental materials: the used cancer cell lines are Hela (human cervical cancer cells), MCF-7 (human breast cancer cells), BGC-823 (human gastric cancer cells), A549 (human lung cancer cells), HT1080 (human fibrosarcoma cells), A431 (human epidermal squamous cell carcinoma cells), HUVEC (human umbilical vein endothelial cells), DU145 (human prostate cancer cells), K562 (human leukemia cells), U937 (human leukemia cells), Pac-1 (human pancreatic cancer cells), and MOLT-4 (human acute lymphoblastic leukemia cells), which are cultured with a DMEM+10% FBS culture medium or a 1640+10% FBS culture medium, respectively.
(§3) Experimental groups: 190 μl cell suspension+10 μl pharmaceuticals in different concentrations (the final concentration is 10^−5-10^−10M)
(§4) Negative control group: 190 μl cell suspension+10 μl 2% DMSO (the final concentration of DMSO is 0.1%)
(§5) a) Cells are inoculated on a 96-pore plate, with 1500 cells and 190 μl for each hole, and cultured overnight in a 5% CO2 incubator at 37.
(§6) b) 10 μl of different pharmaceuticals is added into each hole the next day, with the final concentration of the pharmaceuticals of 10^−5-10^−10M and three parallel holes, and incubated for 72 h in a 5% CO2 incubator at 37.
(§7) c) 20 μl of 5 mg/mL MTT is added into each hole, and incubated for 4 h in a 5% CO2 incubator at 37.
(§8) d) Supernatant is removed. 100 μl of DMSO is added into each hole and vibrated.
(§9) e) The reading is 570 nm. The cell survival rate is calculated.

[2] = test system: MOLT-4 (human acute lymphoblastic leukemia cells); assay: MTT cancer cell growth inhibition; type: cell-based; conditions: 72 h
Description: as §1, §2, §3, §4, §5, §6, §7, §8, §9

[3] = test system: MCF-7 (human breast cancer cells); assay: MTT cancer cell growth inhibition; type: cell-based; conditions: MCF7, 72 h
Description: as §1, §2, §3, §4, §5, §6, §7, §8, §9

[4] = test system: U937 (human leukemia cells); assay: MTT cancer cell growth inhibition; type: cell-based; conditions: U-937, 72 h
Description: as §1, §2, §3, §4, §5, §6, §7, §8, §9

PANC-1 = assay: MTT cancer cell growth inhibition; type: cell-based; conditions: Homo sapiens, 72 h
Description: as §1, §2, §3, §4, §5, §6, §7, §8, §9

[5] = test system: HT1080 (human fibrosarcoma cells); assay: MTT cancer cell growth inhibition; type: cell-based; conditions: HT-1080, 72 h
Description: as §1, §2, §3, §4, §5, §6, §7, §8, §9

[6] = test system: A549 (human lung cancer cells); assay: MTT cancer cell growth inhibition; type: cell-based; conditions: 72 h
Description: as §1, §2, §3, §4, §5, §6, §7, §8, §9

[7] = test system: BGC-823 (human gastric cancer cells); assay: MTT cancer cell growth inhibition; type: cell-based; conditions: 72 h, read-out: GI50 BGC823
Description: as §1, §2, §3, §4, §5, §6, §7, §8, §9

[8] = test system: DU145 (human prostate cancer cells); assay: MTT cancer cell growth inhibition; type: cell-based; conditions: DU-145, 72 h
Description: as §1, §2, §3, §4, §5, §6, §7, §8, §9

Incap = assay: MTT cancer cell growth inhibition; type: cell-based; conditions: 72 h
HDAC7 = biological target: T1, HDAC7 (Homo sapiens, UniProt Q8WUI4); assay: Measurement of biochemical activities of HDAC (fluorescently-labeled acetylated lysine substrate)
T1 sequence (Q8WUI4 1-952): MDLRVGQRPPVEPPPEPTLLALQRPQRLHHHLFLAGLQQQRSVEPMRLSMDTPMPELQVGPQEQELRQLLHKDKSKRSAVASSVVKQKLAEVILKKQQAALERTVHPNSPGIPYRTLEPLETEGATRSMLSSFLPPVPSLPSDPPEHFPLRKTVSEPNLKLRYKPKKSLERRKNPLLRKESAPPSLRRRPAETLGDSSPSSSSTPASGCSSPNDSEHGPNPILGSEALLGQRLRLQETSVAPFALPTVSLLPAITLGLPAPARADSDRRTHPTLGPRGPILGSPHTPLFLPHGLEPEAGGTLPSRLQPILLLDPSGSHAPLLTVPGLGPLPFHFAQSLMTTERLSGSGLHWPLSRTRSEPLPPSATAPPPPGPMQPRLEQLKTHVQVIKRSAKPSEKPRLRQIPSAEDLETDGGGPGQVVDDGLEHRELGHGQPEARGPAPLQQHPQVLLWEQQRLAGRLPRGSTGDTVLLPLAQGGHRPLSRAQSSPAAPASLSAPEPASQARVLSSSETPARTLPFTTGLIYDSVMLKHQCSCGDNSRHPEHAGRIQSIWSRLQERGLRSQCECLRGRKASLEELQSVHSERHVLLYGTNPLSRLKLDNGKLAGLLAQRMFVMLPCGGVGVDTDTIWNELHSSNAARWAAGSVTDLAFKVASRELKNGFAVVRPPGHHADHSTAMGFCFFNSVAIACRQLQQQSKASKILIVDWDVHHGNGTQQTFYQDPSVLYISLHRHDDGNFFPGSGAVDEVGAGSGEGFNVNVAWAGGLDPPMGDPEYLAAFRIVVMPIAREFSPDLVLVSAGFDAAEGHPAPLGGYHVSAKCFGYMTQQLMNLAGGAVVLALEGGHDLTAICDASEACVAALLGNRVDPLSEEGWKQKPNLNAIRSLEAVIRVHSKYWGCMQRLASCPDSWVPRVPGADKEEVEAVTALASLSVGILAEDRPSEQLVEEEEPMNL
Experimental: (§10) 1. Measurement principles: the measurement of biochemical activities of compounds is determined according to the degree of the compounds inhibiting the deacylation of HDAC enzyme. After the fluorescently-labeled substrate containing acetylated lysine side chain reacts with the HDAC enzyme, the fluorogenic substrate is deacetylated. After the deacetylated fluorescently-labeled substrate is cracked by the enzyme, a fluorescent substance is released. The fluorescent substance generates emitting light of 460 nm under the excitation of light of 360 nm.
(§11) 2. Detailed steps: the substrate of HDAC is diluted to […] (the reaction concentration is […]) with a reaction buffer. HDAC enzyme is diluted to a proper concentration. The compounds to be detected in different concentrations are added. The mixture reacts for 30 min at 37. Then the developer with the same volume and twice concentration of the substrate is added into the mixture. The mixture is incubated for 15 min at room temperature. Finally, the reading is measured with a micro plate scanner. The excitation light is 360 nm, the emitting light is 460 nm, and the data is processed with Prime 4 software.

HDAC1 = HDAC1 (Homo sapiens, UniProt Q13547); assay: as above; conditions: read-out: IC50 HDAC1
HDAC1, sequence (Q13547 whole entry, species assumed): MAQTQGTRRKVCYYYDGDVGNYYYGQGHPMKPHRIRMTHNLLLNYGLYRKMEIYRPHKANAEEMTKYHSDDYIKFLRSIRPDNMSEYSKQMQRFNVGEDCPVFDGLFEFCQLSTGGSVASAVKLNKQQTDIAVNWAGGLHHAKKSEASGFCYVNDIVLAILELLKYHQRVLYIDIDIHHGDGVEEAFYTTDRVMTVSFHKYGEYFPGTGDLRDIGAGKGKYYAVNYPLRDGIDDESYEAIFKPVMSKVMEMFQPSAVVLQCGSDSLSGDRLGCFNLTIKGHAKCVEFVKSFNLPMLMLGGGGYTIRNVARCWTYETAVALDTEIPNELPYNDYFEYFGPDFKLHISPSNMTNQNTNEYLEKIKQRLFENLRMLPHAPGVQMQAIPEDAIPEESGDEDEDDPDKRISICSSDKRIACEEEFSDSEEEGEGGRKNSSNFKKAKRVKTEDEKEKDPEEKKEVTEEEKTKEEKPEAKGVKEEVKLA
Experimental: as §10, §11

Row | SMILES | GI50 [1] | GI50 [2] | GI50 [3] | GI50 [4] | GI50 (PANC-1) | GI50 [5] | GI50 [6] | GI50 [7] | GI50 [8] | GI50 (Incap) | IC50 HDAC7 (HDAC7) | IC50 (HDAC1)
1 | C/C=C1\NC(=O)c2csc(n2)CNC(=O)C[C@@H](/C=C/CCSC(=O)CCN)OC(=O)[C@H](C(C)C)NC1=O [Compound 6-6] | 0.86 µM | 56.4 µM | 0.952 µM | 1.29 µM | 1.65 µM | 4.16 µM | 0.001 µM | 0.065 µM | 0.3 µM | 0.65 µM | no activity | < 1 µM
2 | C/C=C1\NC(=O)c2csc(n2)CNC(=O)C[C@@H](/C=C/CCSC(=O)CCCCCCC)OC(=O)[C@H](CSCC)NC1=O [Compound 1-12] | 0.9 µM | 0.1 µM | 0.8 µM | 0.1 µM | 6 µM | 1 µM | 1.2 µM | 0.06 µM | 0.1 µM | 0.3 µM | no activity | < 0.1 µM
3 | C/C=C1\NC(=O)C2=NC(=NC2)CNC(=O)C[C@@H](/C=C/CCSC(=O)CCCCCCC)OC(=O)[C@H](C(C)C)NC1=O [Compound 2-5] | 12 µM | 1.03 µM | 26 µM | 21 µM | 26.4 µM | 1.02 µM | 2.13 µM | 20.6 µM | 5.46 µM | 0.56 µM | no activity | < 10 µM
4 | C/C=C1\NC(=O)c2ccnc(c2)CNC(=O)C[C@@H](/C=C/CCSC(=O)CCCCCCC)OC(=O)[C@H](C(C)C)NC1=O [Compound 2-7] | 0.1 µM | 2.1 µM | 0.09 µM | 0.009 µM | 0.8 µM | 0.08 µM | 0.09 µM | 0.1 µM | 0.006 µM | 0.65 µM | no activity | < 10 µM
5 | C/C=C1\NC(=O)c2csc(n2)[C@H](Cc2ccccc2)NC(=O)C[C@@H](/C=C/CCSC(=O)CCCCCCC)OC(=O)[C@H](C(C)C)NC1=O [Compound 4-3] | 1.06 µM | 0.03 µM | 2.55 µM | 0.65 µM | 0.01 µM | 3.03 µM | 4.66 µM | 7.12 µM | 0.14 µM | 1.02 µM | no activity | < 10 µM
6 | C/C=C1\NC(=O)c2csc(n2)[C@H](Cc2ccc(O)cc2)NC(=O)C[C@@H](/C=C/CCSC(=O)CCCCCCC)OC(=O)[C@H](C(C)C)NC1=O [Compound 4-4] | 1 µM | 0.05 µM | 0.006 µM | 10.2 µM | 3.01 µM | 0.65 µM | 0.01 µM | 1.02 µM | 2.1 µM | 4.26 µM | no activity | < 10 µM
7 | C/C=C1\NC(=O)c2csc(n2)CNC(=O)C[C@@H](/C=C/CCSC(C)=O)OC(=O)[C@H](C(C)C)NC1=O [Compound 6-2] | 73.5 µM | 0.4 µM | 59.6 µM | 2.65 µM | 0.68 µM | 41 µM | 15.6 µM | 4.6 µM | 1.6 µM | 0.9 µM | no activity | < 10 µM
8 | CCCCCCCC(=O)SCC/C=C/[C@@H]1CC(=O)NCc2nc(cs2)C(=O)N[C@H](CC)C(=O)N[C@@H](C(C)C)C(=O)O1 [Compound 3-2] | 0.6 µM | 1.06 µM | 0.1 µM | 5.26 µM | 1.23 µM | 1.35 µM | 0.36 µM | 1.02 µM | 1.06 µM | 1.42 µM | no activity | < 10 µM
9 | C/C=C1\NC(=O)c2csc(n2)CNC(=O)C[C@@H](/C=C/CCS)OC(=O)[C@H](C(C)C)NC1=O [Compound 6-1] | 0.6 µM | 0.65 µM | 0.059 µM | 0.005 µM | 0.23 µM | 0.05 µM | 0.1 µM | 0.36 µM | 0.034 µM | 0.042 µM | no activity | < 0.1 µM
10 | C/C=C1\NC(=O)c2csc(n2)CNC(=O)C[C@@H](/C=C/CCSC(=O)CCCCCCCCCCCC)OC(=O)[C@H](C(C)C)NC1=O [Compound 6-3] | 45 µM | 3.64 µM | 56.6 µM | 10.1 µM | 0.89 µM | 25 µM | 41 µM | 5 µM | 13.6 µM | 12 µM | no activity | < 10 µM
11 | C/C=C1\NC(=O)c2csc(n2)CNC(=O)C[C@@H](/C=C/CCSC(=O)CCCCCCC)OC(=O)[C@@H](C)NC1=O [Compound 1-5] | 2 µM | 1 µM | 0.8 µM | 0.1 µM | 3 µM | 1 µM | 0.6 µM | 0.1 µM | 0.1 µM | 0.6 µM | no activity | < 10 µM
12 | C/C=C1\NC(=O)c2csc(n2)CNC(=O)C[C@@H](/C=C/CCSC(=O)CCO)OC(=O)[C@H](C(C)C)NC1=O [Compound 6-5] | 0.54 µM | 0.268 µM | 4.12 µM | 2.66 µM | 1.65 µM | 1.65 µM | 0.365 µM | 26.5 µM | 0.695 µM | 0.45 µM | no activity | < 10 µM
